Experimental data reported in paper PMC4138103 (PLoS ONE, 2014).
Several values for one entry are separate records, joined by “and”; a condition that tells them apart may be missing. Equal values may be shown once.

System: Sprague-Dawley rats
Assay: Retinoid analyses in liver, serum and kidney
Assay type: in vivo, Rattus norvegicus
Settings: males
Description: Retinoids in liver, serum, and kidney were analyzed according to Schmidt et al.. The polar retinoids 9-cis-retinoic acid (9-cis-RA), 13-cis-retinoic acid (13-cis-RA), 13-cis-4-oxo-retinoic acid (13-cis-4-o-RA), 9-cis-4-oxo-13,14-dihydro-retinoic acid (9-cis-4-o-13,14-dh-RA), all-trans retinoic acid (all-trans RA) and the apolar retinoids retinol and retinyl palmitate were extracted by a single liquid-extraction, separated from each other via solid-phase extraction using an aminopropyl phase, and then injected onto two different HPLC systems that were coupled with UV detection. […] The limits of detection (LOD) for all-trans RA and 9c-4o-13,14-dh-RA were 0.7 and 1.0 pmol/g tissue, and 0.3 and 0.6 pmol/ml serum, respectively. Retinol and retinyl palmitate were separated on a J'sphere ODS-H80 (4.6×150 mm, 4 µm particle size) obtained from YMC (Schermbeck, Germany), and were detected at 325 nm. The LOD for retinol and retinyl palmitate were 5.6 and 5.5 pmol/g tissue, and 4.2 and 4.2 pmol/ml serum, respectively.
Data were also analyzed using the BMD method, which is based on dose-response modeling of the full data set using a nested family of exponential and Hill models. The analyses were done on data of males and females combined, using sex as a covariate. […] In that case, different Critical Effect Doses (CEDs) and CEDs at the lowest bound of the confidence interval (CED-L) were generated for each sex. If no difference between sexes is detected, a CED and CED-Ls for the combined data is generated. However, this was also done if the curve fits are close, and separate analyses for males and females were then performed manually. CEDs and CED-Ls were calculated at the predefined Critical Effect Size (CES) of 5% (EFSA standard) or 10%.

[1] = total dose 100 mg/kg bw, group mean, N=5
[2] = total dose 300 mg/kg bw, group mean, N=5
[3] = total dose 1000 mg/kg bw, group mean, N=5
[4] = total dose 1700 mg/kg bw, group mean, N=5
[5] = adipose tissue concentration based
[6] = controls vs high dose, fitted model

Clc1cc(Cl)c(-c2cc(Cl)c(Cl)c(Cl)c2Cl)cc1Cl [PCB 180, 2,2′,3′,4,4′,5,5′-heptachlorobiphenyl]
Liver Retinyl esters (total dose 100 mg/kg bw, Liver): 84.5 pmol/mL
Liver Retinol (total dose 100 mg/kg bw, Liver, n=4): 1.75 pmol/mL
Kidney All-trans RA [1]: 37.0 pmol
Kidney Retinol [1]: 17.3 nmol
Kidney Retinyl esters [1]: 8.84 nmol
Liver All-trans RA [1]: 744 pmol
Liver Retinol [1]: 0.26 µmol
Liver Retinyl esters [1]: 10.3 µmol
Liver 9-cis-4o-13,14-dh-RA (total dose 100 mg/kg bw, n=3): 22.7 pmol/g
Serum Retinol (total dose 100 mg/kg bw, n=4): 1.75 pmol/mL
Kidney All-trans RA (total dose 300 mg/kg bw): 35.9 pmol/g
Kidney Retinol (total dose 300 mg/kg bw): 17.5 nmol/g
Kidney Retinyl esters (total dose 300 mg/kg bw): 13.9 nmol/g
Liver All-trans RA (total dose 300 mg/kg bw): 48.1 pmol/g
Liver Retinol (total dose 300 mg/kg bw): 17.4 nmol/g
Liver Retinyl esters (total dose 300 mg/kg bw): 0.56 µmol/g
Serum Retinol (total dose 300 mg/kg bw): 1.64 pmol/mL
Serum Retinyl esters (total dose 300 mg/kg bw): 67.8 pmol/mL
Liver Retinol (total dose 300 mg/kg bw, Liver): 1.64 pmol/mL
Liver Retinyl esters (total dose 300 mg/kg bw, Liver): 67.8 pmol/mL
Kidney All-trans RA [2]: 37.8 pmol
Kidney Retinol [2]: 18.2 nmol
Kidney Retinyl esters [2]: 14.5 nmol
Liver All-trans RA [2]: 863 pmol
Liver Retinol [2]: 0.31 µmol
Liver Retinyl esters [2]: 10.1 µmol
Liver 9-cis-4o-13,14-dh-RA (total dose 300 mg/kg bw, n=4): 20.9 pmol/g
Kidney All-trans RA [3]: 35.9 pmol
Kidney Retinol [3]: 24.5 nmol
Kidney Retinyl esters [3]: 24.5 nmol
Liver 9-cis-4o-13,14-dh RA [3]: 455 pmol
Liver All-trans RA [3]: 1077 pmol
Liver Retinol [3]: 0.27 µmol
Liver Retinyl esters [3]: 8.2 µmol
Kidney All-trans RA [4]: 32.4 pmol
Kidney Retinol [4]: 23.3 nmol
Kidney Retinyl esters [4]: 25.2 nmol
Liver All-trans RA [4]: 1178 pmol
Liver Retinol [4]: 0.23 µmol
Liver Retinyl esters [4]: 6.4 µmol
Kidney retinol amount, CED (CES 5%, total dose based): 206 mg/kg bw
Kidney retinol amount, CED-L (CES 5%, total dose based): 147 mg/kg bw
Kidney retinol concentration, CED (CES 5%, total dose based): 200 mg/kg bw
Kidney retinol concentration, CED-L (CES 5%, total dose based): 149 mg/kg bw
Kidney retinyl esters amount, CED (CES 5%, total dose based): 9.14 mg/kg bw
Kidney retinyl esters amount, CED-L (CES 5%, total dose based): 3.10 mg/kg bw
Kidney retinyl esters concentration, CED (CES 5%, total dose based): 9.9 mg/kg bw and 9.88 mg/kg bw
Kidney retinyl esters concentration, CED-L (CES 5%, total dose based): 3.35 mg/kg bw
Liver all-trans RA amount, CED (CES 5%, total dose based): 21.7 mg/kg bw
Liver all-trans RA amount, CED-L (CES 5%, total dose based): 9.07 mg/kg bw
Liver all-trans RA concentration, CED (CES 5%, total dose based): 450 mg/kg bw
Liver all-trans RA concentration, CED-L (CES 5%, total dose based): 268 mg/kg bw
Liver retinol amount, CED (CES 5%, total dose based): 437 mg/kg bw
Liver retinol amount, CED-L (CES 5%, total dose based): 261 mg/kg bw
Liver retinol concentration, CED (CES 5%, total dose based): 32 mg/kg bw and 31.9 mg/kg bw
Liver retinol concentration, CED-L (CES 5%, total dose based): 6.10 mg/kg bw
Liver retinyl esters amount, CED (CES 5%, total dose based): 145 mg/kg bw
Liver retinyl esters amount, CED-L (CES 5%, total dose based): 123 mg/kg bw
Liver retinyl esters concentration, CED (CES 5%, total dose based): 22 mg/kg bw and 21.5 mg/kg bw
Liver retinyl esters concentration, CED-L (CES 5%, total dose based): 12.9 mg/kg bw
Kidney retinol amount, CED (CES 10%, total dose based): 402 mg/kg bw
Kidney retinol amount, CED-L (CES 10%, total dose based): 288 mg/kg bw
Kidney retinol concentration, CED (CES 10%, total dose based): 390 mg/kg bw
Kidney retinol concentration, CED-L (CES 10%, total dose based): 291 mg/kg bw
Kidney retinyl esters amount, CED (CES 10%, total dose based): 18.5 mg/kg bw
Kidney retinyl esters amount, CED-L (CES 10%, total dose based): 6.26 mg/kg bw
Kidney retinyl esters concentration, CED (CES 10%, total dose based): 20 mg/kg bw
Kidney retinyl esters concentration, CED-L (CES 10%, total dose based): 6.77 mg/kg bw
Liver all-trans RA amount, CED (CES 10%, total dose based): 44.7 mg/kg bw
Liver all-trans RA amount, CED-L (CES 10%, total dose based): 18.7 mg/kg bw
Liver all-trans RA concentration, CED (CES 10%, total dose based): 879 mg/kg bw
Liver all-trans RA concentration, CED-L (CES 10%, total dose based): 523 mg/kg bw
Liver retinol amount, CED (CES 10%, total dose based): 897 mg/kg bw
Liver retinol amount, CED-L (CES 10%, total dose based): 536 mg/kg bw
Liver retinol concentration, CED (CES 10%, total dose based): 56 mg/kg bw
Liver retinol concentration, CED-L (CES 10%, total dose based): 10.4 mg/kg bw
Liver retinyl esters amount, CED (CES 10%, total dose based): 296 mg/kg bw
Liver retinyl esters amount, CED-L (CES 10%, total dose based): 252 mg/kg bw
Liver retinyl esters concentration, CED (CES 10%, total dose based): 43.9 mg/kg bw
Liver retinyl esters concentration, CED-L (CES 10%, total dose based): 26.6 mg/kg bw
Kidney retinol concentration, CED [5]: 863 µg/g lipid
Kidney retinyl ester concentration, CED [5]: 42 µg/g lipid
Liver all-trans RA concentration, CED [5]: 1920 µg/g lipid
Liver retinol concentration, CED [5]: 31 µg/g lipid
Liver retinol, CED-L [5]: 18800 ng/g lipid
Liver retinyl ester concentration, CED [5]: 108 µg/g lipid
Kidney retinol concentration, Maximum response [6]: 51.5%
Liver all-trans RA concentration, Maximum response [6]: 20% and 20.3%
Liver 9-cis-4o-13,14-dh RA (total dose 10 mg/kg bw, group mean, n=3): 163 pmol
Liver 9-cis-4o-13,14-dh RA (total dose 30 mg/kg bw, n=1): 389b pmol
Liver 9-cis-4o-13,14-dh-RA (total dose 30 mg/kg bw, n=1): 30.8 pmol·days/g
Liver 9-cis-4o-13,14-dh RA (total dose 100 mg/kg bw, group mean, n=3): 434 pmol
Liver 9-cis-4o-13,14-dh RA (total dose 300 mg/kg bw, group mean, n=4): 403 pmol
Liver 9-cis-4o-13,14-dh RA (total dose 1700 mg/kg bw, group mean, n=4, one exceptionally high value excluded as an outlier): 454 pmol
